Reference: patent US20210308034A1, “PREBIOTIC COMPOSITIONS AND METHODS FOR MAINTAINING A HEALTHY SKIN MICROBIOTA” (KIMBERLY-CLARK WORLDWIDE, INC., priority 2018, published 2021)

What was measured:
Assay type in all cases: cell-based
[1] = tested on: Corynebacterium jeikum (ATCC 33033); assay: Carbohydrate Screening Test Method (Biolog phenotype microarray), Bacteria Code B; conditions: Commensal; carbon microarray plate, OD 600 nm, 36 hr, 33° C.; positive = more than 0.05 OD units above zero; blank cell = not utilized
Procedure, shortened: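 Strain from M9*2 agar was suspended in M9*1 medium, washed and inoculated into Biolog PM1/PM2 carbon plates. Carbohydrate use was scored yes/no, and growth rate and maximum yield were derived with GrowthRates 2.1, with max yields used for commensal ratios.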

[2] = tested on: Corynebacterium minutissimum (ATCC 23348); assay: Carbohydrate Screening Test Method (Biolog phenotype microarray), Bacteria Code A; conditions: Pathogenic; carbon microarray plate, OD 600 nm, 36 hr, 33° C.; positive = more than 0.05 OD units above zero; blank cell = not utilized
Description: (§1) After creating desired ratios of various commensal skin bacteria in a healthy skin microbiome, 188 different carbohydrate sources were screened as the next step in determining potential prospects for skin microbiota balancing agents. The screening process was set up to determine which carbohydrate sources promoted commensal and/or pathogenic bacteria as well as to obtain individual and combinations of carbohydrate sources that could serve as microbiota balancing agents that can support or maintain the healthy proportions of commensal skin bacteria of Corynebacterium, Staphylococcus, and Micrococcus. The screening was conducted utilizing Biolog phenotype microarray plates (Hayward, Calif.). Table 1 provides a coded list of the commensal and pathogenic skin bacteria that the carbohydrates were screened against.
(§2) Table 2 provides the results of screening various carbohydrate sources against the commensal and pathogenic bacteria codes listed in Table 1. The Bacteria Codes B, D, E, I, and J are commensal bacteria and are shaded in Table 2 for references purposes. The bacteria codes were each placed in a carbon microarray plate and screened through the Carbohydrate Screening Test Method, as described in the Test Methods section herein. If a particular bacteria code utilized a specific carbohydrate source as described in the Carbohydrate Screening Test Method, then the corresponding cell in Table 2 was marked with a Y (short for “Yes”). […] Many of the carbohydrate sources were utilized by both commensal and pathogenic bacteria, and as such, would not provide an advantage for selective growth of the commensal bacteria. However, some of the carbohydrate sources were only used by commensal bacteria and were identified for further testing as described herein.
(§3) The study employed 10 representative skin bacteria; Staphylococcus epidermidis ATCC 14990, Staphylococcus epidermidis M23864:W2, Staphylococcus aureus ATCC 6538, Staphylococcus aureus ATCC 25904 (Newman), Pseudomonas aeruginosa ATCC 9027, Micrococcus luteus ATCC […], Micrococcus luteus SK58, Klebsiella pneumoniae ATCC BAA-2146, Corynebacterium amycolatum SK46, and Corynebacterium minutissimum ATCC 23348. Cultures were started from freezer bead stocks by placing a single bead into 20 mL of tryptic soy broth (TSB) for all organisms except C. amycolatum SK46 and C. minutissimum ATCC 23348, which were placed into brain heart infusion (BHI) broth. Cultures were grown for about 24 hr at 37° C. except M. luteus ATCC 49732 and M. luteus SK58, which were grown at 30° C. A passage of the culture was made using a sterile swab and streaked onto two M9*2 agar plates to prepare the incubated culture for the phenotype microarray pate according to Table 4. Plates were incubated for about 24 hr at 37° C. except for M. luteus ATCC 49732 and M. luteus SK58, which were incubated at 30° C. for 24 hr.
(§4) All cultures were harvested and washed before inoculation into the carbon microarray plate (BiOLOG, Hayward Calif.), with Biolog Plates PM1 and PM2 each having a source definition of Carbon. The bacteria on the M9*2 agar was suspended via agitation with an inoculating loop in 1 mL of M9*1 media for collection in a 1.7 mL micro centrifuge tube, as noted in Table 4. The bacteria was suspended again in M9*1 media, agitated, and collected into the same 1.7 mL microcentrifuge tube used in the previous step. The tube was centrifuged for 5 minutes at 4,000×G, supernatant decanted, the pellet was resuspended in 1 mL of M9*1 media, and vortex. This washing process was repeated for a total of 4 times.
(§5) A tenfold dilution in M9*1 media was performed using 1 mL of the washed bacterial culture. Of the tenfold dilution 200 μL was placed in an untreated 96-well plate (Falcon, Pasadena Tx.) for an initial optical density (OD) reading at a wavelength of 600 nm. The OD was used to correlate to colony forming units (CFU) per milliliter by using linear regression lines for each organism. […]

[3] = tested on: Micrococcus luteus (SK58); assay: Carbohydrate Screening Test Method (Biolog phenotype microarray), Bacteria Code E; conditions: Commensal; carbon microarray plate, OD 600 nm, 36 hr, 33° C.; positive = more than 0.05 OD units above zero; blank cell = not utilized
Procedure, shortened: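 Each commensal strain grown in Biolog carbon phenotype microarray plates with single carbohydrate sources. Growth curves fitted with GrowthRates 2.1 to give growth rate and maximum yield. Max yields used to calculate predicted co-culture ratios between Corynebacterium, Staphylococcus and Micrococcus, compared with desired ratios of 1.3, 1.4 and 1.1.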

[4] = tested on: Staphylococcus aureus (ATCC 25904) (Newman); assay: Carbohydrate Screening Test Method (Biolog phenotype microarray), Bacteria Code H; conditions: Pathogenic; carbon microarray plate, OD 600 nm, 36 hr, 33° C.; positive = more than 0.05 OD units above zero; blank cell = not utilized
Description: as §1, §2, §3, §4, §5

[5] = tested on: Pseudomonas aeruginosa (ATCC 9027); conditions: Pathogenic; carbon microarray plate, OD 600 nm, 36 hr, 33° C.; positive = more than 0.05 OD units above zero; blank cell = not utilized
Procedure, shortened: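 Carbon-source utilisation screen on Biolog PM1/PM2 plates: strain grown in TSB then on M9*2 agar, each ~24 h at 37 °C, washed four times in M9*1 and diluted tenfold. OD600 correlated to CFU/mL; each carbohydrate scored Yes when utilised.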

[6] = tested on: Klebsiella pneumoniae (ATCC BAA-2146); conditions: Pathogenic; carbon microarray plate, OD 600 nm, 36 hr, 33° C.; positive = more than 0.05 OD units above zero; blank cell = not utilized
[7] = tested on: Staphylococcus aureus (ATCC 6538); assay: Carbohydrate Screening Test Method (Biolog phenotype microarray), Bacteria Code G; conditions: Pathogenic; carbon microarray plate, OD 600 nm, 36 hr, 33° C.; positive = more than 0.05 OD units above zero; blank cell = not utilized
Description: as §1, §2, §3, §4, §5

[8] = tested on: Micrococcus luteus (ATCC 49732); assay: Carbohydrate Screening Test Method (Biolog phenotype microarray), Bacteria Code D; conditions: Commensal; carbon microarray plate, OD 600 nm, 36 hr, 33° C.; positive = more than 0.05 OD units above zero; blank cell = not utilized
Description: as §1, §2, §3, §4, §5

[9] = tested on: Staphylococcus epidermidis (M23864:W2); assay: Carbohydrate Screening Test Method (Biolog phenotype microarray), Bacteria Code J; conditions: Commensal; carbon microarray plate, OD 600 nm, 36 hr, 33° C.; positive = more than 0.05 OD units above zero; blank cell = not utilized
[10] = tested on: Staphylococcus epidermidis (ATCC 14990); assay: Carbohydrate Screening Test Method (Biolog phenotype microarray), Bacteria Code I; conditions: Commensal; carbon microarray plate, OD 600 nm, 36 hr, 33° C.; positive = more than 0.05 OD units above zero; blank cell = not utilized
Description: as §1, §2, §3, §4, §5

CC(=O)N[C@H]1C(O)O[C@H](CO)[C@@H](O)[C@@H]1O (stereo partly drawn) [N-Acetyl-D-Glucosamine]
Y: Carbohydrate Screening Results, Bacteria Code B [1] | Carbohydrate Screening Results, Bacteria Code A [2] | Carbohydrate Screening Results, Bacteria Code E [3]

O=C(O)CCC(=O)O [Succinic Acid]
Y: Carbohydrate Screening Results, Bacteria Code A [2]

OC[C@@H](O)[C@@H](O)[C@H](O)[C@H](O)CO [D-Mannitol]
Y: Carbohydrate Screening Results, Bacteria Code H [4] | Carbohydrate Screening Results, Bacteria Code F [5] | Carbohydrate Screening Results, Bacteria Code C [6] | Carbohydrate Screening Results, Bacteria Code G [7] | Carbohydrate Screening Results, Bacteria Code B [1] | Carbohydrate Screening Results, Bacteria Code E [3]

C/C(=C/C(=O)O)C(=O)O [Citraconic Acid]
Y: Carbohydrate Screening Results, Bacteria Code D [8] | Carbohydrate Screening Results, Bacteria Code J [9] | Carbohydrate Screening Results, Bacteria Code I [10]

O=C(CO)[C@@H](O)[C@H](O)[C@H](O)CO [D-Fructose]
Y: Carbohydrate Screening Results, Bacteria Code H [4] | Carbohydrate Screening Results, Bacteria Code C [6] | Carbohydrate Screening Results, Bacteria Code J [9] | Carbohydrate Screening Results, Bacteria Code G [7] | Carbohydrate Screening Results, Bacteria Code B [1] | Carbohydrate Screening Results, Bacteria Code A [2] | Carbohydrate Screening Results, Bacteria Code E [3]

CSCC[C@H](N)C(=O)O [L-Methionine]
Y: Carbohydrate Screening Results, Bacteria Code A [2]

OC[C@H]1O[C@@H](n2cnc3c(O)ncnc32)[C@H](O)[C@@H]1O [Inosine]
Y: Carbohydrate Screening Results, Bacteria Code H [4] | Carbohydrate Screening Results, Bacteria Code C [6] | Carbohydrate Screening Results, Bacteria Code B [1] | Carbohydrate Screening Results, Bacteria Code E [3]

CC(N)=O [Acetamide]
Y: Carbohydrate Screening Results, Bacteria Code A [2]

Cc1cn([C@H]2C[C@H](O)[C@@H](CO)O2)c(=O)[nH]c1=O [Thymidine]
Y: Carbohydrate Screening Results, Bacteria Code B [1] | Carbohydrate Screening Results, Bacteria Code A [2] | Carbohydrate Screening Results, Bacteria Code E [3]

Maltotriose
Y: Carbohydrate Screening Results, Bacteria Code H [4] | Carbohydrate Screening Results, Bacteria Code F [5] | Carbohydrate Screening Results, Bacteria Code C [6] | Carbohydrate Screening Results, Bacteria Code J [9] | Carbohydrate Screening Results, Bacteria Code B [1] | Carbohydrate Screening Results, Bacteria Code A [2] | Carbohydrate Screening Results, Bacteria Code E [3] | Carbohydrate Screening Results, Bacteria Code I [10]

OC[C@H]1O[C@@](CO)(O[C@H]2O[C@H](CO)[C@@H](O)[C@H](O)[C@H]2O)[C@@H](O)[C@@H]1O [Sucrose]
Y: Carbohydrate Screening Results, Bacteria Code F [5] | Carbohydrate Screening Results, Bacteria Code C [6] | Carbohydrate Screening Results, Bacteria Code J [9] | Carbohydrate Screening Results, Bacteria Code G [7] | Carbohydrate Screening Results, Bacteria Code B [1] | Carbohydrate Screening Results, Bacteria Code A [2] | Carbohydrate Screening Results, Bacteria Code E [3]

C[C@H](O)C(=O)O [L-Lactic Acid]
Y: Carbohydrate Screening Results, Bacteria Code B [1] | Carbohydrate Screening Results, Bacteria Code A [2] | Carbohydrate Screening Results, Bacteria Code E [3] | Carbohydrate Screening Results, Bacteria Code I [10]

OC[C@H]1O[C@@H]2O[C@H]3[C@H](O)[C@@H](O)[C@@H](O[C@H]4[C@H](O)[C@@H](O)[C@@H](O[C@H]5[C@H](O)[C@@H](O)[C@@H](O[C@H]6[C@H](O)[C@@H](O)[C@@H](O[C@H]7[C@H](O)[C@@H](O)[C@@H](O[C@H]8[C@H](O)[C@@H](O)[C@@H](O[C@H]1[C@H](O)[C@H]2O)O[C@@H]8CO)O[C@@H]7CO)O[C@@H]6CO)O[C@@H]5CO)O[C@@H]4CO)O[C@@H]3CO [β-Cyclodextrin]
Y: Carbohydrate Screening Results, Bacteria Code D [8] | Carbohydrate Screening Results, Bacteria Code J [9] | Carbohydrate Screening Results, Bacteria Code I [10]

O=C[C@H](O)[C@@H](O)[C@H](O)[C@H](O)COP(=O)(O)O [D-Glucose-6-Phosphate]
Y: Carbohydrate Screening Results, Bacteria Code F [5] | Carbohydrate Screening Results, Bacteria Code C [6] | Carbohydrate Screening Results, Bacteria Code J [9] | Carbohydrate Screening Results, Bacteria Code G [7] | Carbohydrate Screening Results, Bacteria Code E [3] | Carbohydrate Screening Results, Bacteria Code I [10]

CC(=O)C(=O)O [Pyruvic Acid]
Y: Carbohydrate Screening Results, Bacteria Code D [8] | Carbohydrate Screening Results, Bacteria Code F [5] | Carbohydrate Screening Results, Bacteria Code J [9] | Carbohydrate Screening Results, Bacteria Code B [1] | Carbohydrate Screening Results, Bacteria Code I [10]

CO[C@@H]1O[C@H](CO)[C@@H](O)[C@H](O)[C@H]1O [β-Methyl-D-Glucoside]
Y: Carbohydrate Screening Results, Bacteria Code H [4] | Carbohydrate Screening Results, Bacteria Code C [6] | Carbohydrate Screening Results, Bacteria Code B [1] | Carbohydrate Screening Results, Bacteria Code E [3]

O=C(CO)[C@@H](O)[C@H](O)[C@H](O)COP(=O)(O)O [D-Fructose-6-Phosphate]
Y: Carbohydrate Screening Results, Bacteria Code H [4] | Carbohydrate Screening Results, Bacteria Code J [9] | Carbohydrate Screening Results, Bacteria Code G [7] | Carbohydrate Screening Results, Bacteria Code B [1] | Carbohydrate Screening Results, Bacteria Code E [3]

OC[C@H]1O[C@H](O[C@H]2O[C@H](CO)[C@@H](O)[C@H](O)[C@H]2O)[C@H](O)[C@@H](O)[C@@H]1O [D-Trehalose]
Y: Carbohydrate Screening Results, Bacteria Code H [4] | Carbohydrate Screening Results, Bacteria Code D [8] | Carbohydrate Screening Results, Bacteria Code F [5] | Carbohydrate Screening Results, Bacteria Code C [6] | Carbohydrate Screening Results, Bacteria Code G [7] | Carbohydrate Screening Results, Bacteria Code B [1] | Carbohydrate Screening Results, Bacteria Code E [3]

OC[C@H]1O[C@H](O[C@H]2[C@H](O)[C@@H](O)[C@H](O)O[C@@H]2CO)[C@H](O)[C@@H](O)[C@@H]1O [Maltose]
Y: Carbohydrate Screening Results, Bacteria Code H [4] | Carbohydrate Screening Results, Bacteria Code F [5] | Carbohydrate Screening Results, Bacteria Code C [6] | Carbohydrate Screening Results, Bacteria Code J [9] | Carbohydrate Screening Results, Bacteria Code B [1] | Carbohydrate Screening Results, Bacteria Code E [3] | Carbohydrate Screening Results, Bacteria Code I [10]

O=C[C@@H](O)[C@@H](O)[C@H](O)[C@H](O)CO [D-Mannose]
Y: Carbohydrate Screening Results, Bacteria Code H [4] | Carbohydrate Screening Results, Bacteria Code C [6] | Carbohydrate Screening Results, Bacteria Code G [7] | Carbohydrate Screening Results, Bacteria Code B [1] | Carbohydrate Screening Results, Bacteria Code A [2] | Carbohydrate Screening Results, Bacteria Code E [3]

O=C(O)[C@@H](O)[C@@H](O)[C@H](O)[C@@H](O)C(=O)O [D-Saccharic Acid]
Y: Carbohydrate Screening Results, Bacteria Code A [2]
